According to paper PMC4195764, “Molecular mechanism of ligand recognition by membrane transport protein, Mhp1” (The EMBO Journal, 2014):

Tests used:
Mhp1 [1] = target: T1, Mhp1 (Microbacterium maritypicum, UniProt D6R8X8); experiment: inhibition of […]-L-IMH uptake into E. coli cells expressing Mhp1; format: cell-based; design: gene hyuP; full-length membrane protein expressed in E. coli BL21(DE3) from pSHP11; details: read-out: Apparent IC5_0
T1 sequence (D6R8X8 1-489): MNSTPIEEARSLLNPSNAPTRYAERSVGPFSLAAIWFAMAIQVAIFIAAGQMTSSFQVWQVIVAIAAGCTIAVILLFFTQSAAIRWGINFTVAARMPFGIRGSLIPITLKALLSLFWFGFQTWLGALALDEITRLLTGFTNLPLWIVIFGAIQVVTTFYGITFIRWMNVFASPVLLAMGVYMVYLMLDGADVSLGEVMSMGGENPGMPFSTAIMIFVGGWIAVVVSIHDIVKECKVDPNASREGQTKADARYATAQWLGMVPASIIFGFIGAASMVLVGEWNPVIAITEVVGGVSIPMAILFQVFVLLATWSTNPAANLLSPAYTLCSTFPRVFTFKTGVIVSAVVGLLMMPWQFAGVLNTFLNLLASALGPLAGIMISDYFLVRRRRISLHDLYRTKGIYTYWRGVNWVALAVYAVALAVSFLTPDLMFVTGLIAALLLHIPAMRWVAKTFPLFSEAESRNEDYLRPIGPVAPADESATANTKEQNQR

Mhp1 [2] = target: T1, Mhp1; experiment: stopped-flow tryptophan spectrophotofluorimetry; format: binding; design: gene hyuP; full-length membrane protein expressed in E. coli BL21(DE3) from pSHP11; GFP-fusion purified for crystallography (details in supplement); details: read-out: Apparent Kd
Description: stopped-flow tryptophan spectrophotofluorimetry on Mhp1

Mhp1 [3] = target: T2, Mhp1 (Microbacterium maritypicum, UniProt D6R8X8, L363A); experiment: uptake of […]-L-NMH into E. coli cells expressing mutant; format: cell-based; details: 50 μM labelled compound, 150 mM NaCl, pH 6.6, 15 s; not transported by wild type
T2 construct: gene hyuP; full-length membrane protein expressed in E. coli BL21(DE3) from pSHP11; GFP-fusion purified for crystallography (details in supplement)
T2 sequence (D6R8X8 whole entry L363A, the tested form may be a part): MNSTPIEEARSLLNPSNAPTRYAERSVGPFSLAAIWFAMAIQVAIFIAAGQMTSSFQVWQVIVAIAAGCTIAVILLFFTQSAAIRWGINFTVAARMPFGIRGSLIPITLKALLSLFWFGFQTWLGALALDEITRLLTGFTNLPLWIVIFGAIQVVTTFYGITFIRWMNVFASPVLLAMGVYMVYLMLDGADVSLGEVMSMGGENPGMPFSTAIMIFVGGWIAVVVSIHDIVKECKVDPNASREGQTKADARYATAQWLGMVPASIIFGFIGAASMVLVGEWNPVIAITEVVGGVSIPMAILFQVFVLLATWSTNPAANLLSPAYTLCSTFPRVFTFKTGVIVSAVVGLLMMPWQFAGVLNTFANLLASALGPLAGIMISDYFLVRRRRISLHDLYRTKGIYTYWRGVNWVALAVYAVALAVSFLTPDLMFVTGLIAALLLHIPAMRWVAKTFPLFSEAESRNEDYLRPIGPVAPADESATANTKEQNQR

IC50 (Mhp1 [1]) | Kd (Mhp1 [2]) | Structure (SMILES) | uptake of 14C-L-NMH into E. coli cells expressing mutant (Mhp1 [3])
38.8 ± 1.1 µM | 2 ± 0.2 µM | O=C1NC(=O)C(=Cc2cccc(Br)c2)N1 (stereo in doubt) [BVH, (5E)-5-[(3-bromophenyl)methylidene] imidazolidine-2,4-dione] | –
– | 130 ± 10 µM | O=C1NC(=O)[C@@H](Cc2ccccc2)N1 [D-BH] | –
– | 20.6 ± 3.8 µM | O=C1NC(=O)[C@@H](Cc2c[nH]c3ccccc23)N1 [D-IMH] | –
17.1 ± 1.1 µM | 1.8 ± 0.3 µM | O=C1NC(=O)[C@@H](Cc2ccc3ccccc3c2)N1 [D-NMH] | –
945 ± 1.1 µM | 36 ± 1.4 µM | O=C1NC(=O)[C@H](Cc2ccccc2)N1 [L-BH, (5S)-5-benzylimidazolidine-2,4-dione] | –
119.2 ± 1.1 µM | 19 ± 2 µM | O=C1NC(=O)[C@H](Cc2c[nH]c3ccccc23)N1 [L-IMH, (5S)-5-(1H-indol-3-ylmethyl)imidazolidine-2,4-dione] | –
14.9 ± 1.1 µM | 3.6 ± 0.8 µM | O=C1NC(=O)[C@H](Cc2ccc3ccccc3c2)N1 [L-NMH, (5S)-5-(naphthalen-2-ylmethyl)imidazolidine-2,4-dione] | when Leu363 was mutated to an alanine, uptake was restored
